Assay results: patent US10550105B2 (Ribon Therapeutics Inc., priority 2018, dated 2020)

What follows are compounds tested against PARP7 (Homo sapiens (Human), UniProt Q7Z3E1) (assay: Enzymatic assay for inhibition of PARP7: TR-FRET displacement of biotinylated Probe A from the TIPARP active site). Conditions: Table A-1.
Assay type: binding
Method in brief: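 Titrated compounds compete with the biotinylated probe; after an additional 30 min incubation at 25° C, time-delayed fluorescence (90 μs) is measured. Inhibition curves use a Hill coefficient that normally floats but may be held at 1.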

Chain of PARP7 (Q7Z3E1 whole entry): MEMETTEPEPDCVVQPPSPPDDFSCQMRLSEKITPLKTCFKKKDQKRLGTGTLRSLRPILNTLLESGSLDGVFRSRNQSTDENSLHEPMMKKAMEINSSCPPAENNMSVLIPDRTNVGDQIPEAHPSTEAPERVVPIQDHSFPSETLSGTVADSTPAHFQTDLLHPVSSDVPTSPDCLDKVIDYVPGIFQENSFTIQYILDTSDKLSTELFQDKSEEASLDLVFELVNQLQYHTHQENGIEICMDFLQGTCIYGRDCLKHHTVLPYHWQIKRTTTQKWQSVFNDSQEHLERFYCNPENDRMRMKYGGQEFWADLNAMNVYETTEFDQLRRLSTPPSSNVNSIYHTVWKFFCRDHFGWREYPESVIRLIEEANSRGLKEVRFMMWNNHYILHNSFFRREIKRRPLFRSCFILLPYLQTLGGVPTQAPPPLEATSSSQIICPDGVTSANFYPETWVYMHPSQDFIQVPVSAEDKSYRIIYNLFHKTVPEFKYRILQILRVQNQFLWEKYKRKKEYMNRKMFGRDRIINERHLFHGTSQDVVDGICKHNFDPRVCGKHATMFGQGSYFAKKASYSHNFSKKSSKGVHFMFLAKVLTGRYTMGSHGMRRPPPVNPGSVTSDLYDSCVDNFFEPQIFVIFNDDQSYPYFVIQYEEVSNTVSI

Row | Compound | IC50
1 | NC1CCN(c2cccc3c2CN(c2cn[nH]c(=O)c2C(F)(F)F)C3)CC1 [Example 296, 5-(4-(4-Aminopiperidin-1-yl)isoindolin-2-yl)-4-(trifluoromethyl)pyridazin-3(2H)-one] | 0.1 to 1 µM
2 | N#Cc1ccc(N2CCN(C(=O)CNCC[C@@H]3CCCN3c3cn[nH]c(=O)c3C(F)(F)F)CC2)nc1 [Example 89, 6-[4-[2-([2-[(2S)-1-[6-oxo-5-(trifluoromethyl)-1,6-dihydropyridazin-4-yl]pyrrolidin-2-yl]ethyl]amino)acetyl]piperazin-1-yl]pyridine-3-carbonitrile] | < 0.1 µM
3 | N#Cc1ccc(N2CCN(C(=O)CCO[C@@H](CO)COc3cn[nH]c(=O)c3C(F)(F)F)CC2)nc1 (single isomer, unassigned) [Example 573 Isomer A] | < 0.1 µM
4 | N#Cc1cccc2c1CN(c1cn[nH]c(=O)c1C(F)(F)F)C2 [Example 206, 2-(6-Oxo-5-(trifluoromethyl)-1,6-dihydropyridazin-4-yl)isoindoline-4-carbonitrile] | < 0.1 µM
5 | CCOc1cccc2c1CN(c1cn[nH]c(=O)c1C(F)(F)F)C2 [Example 192, 5-(4-Ethoxyisoindolin-2-yl)-4-(trifluoromethyl)pyridazin-3(2H)-one] | < 0.1 µM
6 | CC[C@@H](COCCC(=O)N1CCN(c2ncc(C#N)cn2)CC1)Oc1cn[nH]c(=O)c1C(F)(F)F [Example 592, 2-(4-[3-[(2S)-2-[[6-oxo-5-(trifluoromethyl)-1,6-dihydropyridazin-4-yl]oxy]butoxy]propanoyl]piperazin-1-yl)pyrimidine-5-carbonitrile] | < 0.1 µM
7 | 6-(4-[3-[(2R)-2-[[6-Oxo-5-(trifluoromethyl)-1,6-dihydropyridazin-4-yl]amino]-2-phenylethoxy]propanoyl]piperazin-1-yl)pyridine-3-carbonitrile [Example 515A] | ≥ 1 µM
8 | O=c1[nH]ncc(N2Cc3ccc(Cl)nc3C2)c1C(F)(F)F [Example 304, 5-(2-Chloro-5,7-dihydro-6H-pyrrolo[3,4-b]pyridin-6-yl)-4-(trifluoromethyl)pyridazin-3(2H)-one] | < 0.1 µM
9 | N#Cc1ccc(N2CCN(C(=O)c3ccnc(OC[C@@H]4c5ccccc5CN4c4cn[nH]c(=O)c4C(F)(F)F)n3)CC2)nc1 (single isomer, unassigned) [Example 38 Isomer A] | < 0.1 µM
10 | O=C(C[C@@H]1CC[C@H]([C@@H]2CCCN2c2cn[nH]c(=O)c2C(F)(F)F)O1)N1CCN(c2ccc(Cl)cn2)CC1 [Example 148B, 5-[(2S)-2-[(2R,5S)-5-[2-[4-(5-chloropyridin-2-yl)piperazin-1-yl]-2-oxoethyl]oxolan-2-yl]pyrrolidin-1-yl]-4-(trifluoromethyl)-2,3-dihydropyridazin-3-one] | 0.1 to 1 µM

Next, values leading:

Row | IC50 | Compound
11 | < 0.1 µM | N#Cc1ccc(N2CCN(C(=O)CCOC[C@@H]3C[C@H](N)CN3c3cn[nH]c(=O)c3C(F)(F)F)CC2)nc1 [Example 485, 6-(4-(3-(((2S,4S)-4-Amino-1-(6-oxo-5-(trifluoromethyl)-1,6-dihydropyridazin-4-yl)pyrrolidin-2-yl)methoxy)propanoyl)piperazin-1-yl)nicotinonitrile]
12 | < 0.1 µM | O=C(c1cncc(OC[C@@H]2c3ccccc3CN2c2cn[nH]c(=O)c2C(F)(F)F)c1)N1CCN(c2ccc(Cl)cn2)CC1 [Example 388, (S)-5-(1-(((5-(4-(5-Chloropyridin-2-yl)piperazine-1-carbonyl)pyridin-3-yl)oxy)methyl)isoindolin-2-yl)-4-(trifluoromethyl)pyridazin-3(2H)-one]
13 | < 0.1 µM | C[C@@H](COCCC(=O)N1CCN(c2ncc(C(C)(F)F)cn2)CC1)Nc1cn[nH]c(=O)c1C(F)(F)F [Example 707, (S)-5-((1-(3-(4-(5-(1,1-Difluoroethyl)pyrimidin-2-yl)piperazin-1-yl)-3-oxopropoxy)propan-2-yl)amino)-4-(trifluoromethyl)pyridazin-3(2H)-one]
14 | < 0.1 µM | C[C@@H](COCCC(=O)N1CCN(c2cnc(Cl)cn2)CC1)Nc1cn[nH]c(=O)c1C(F)(F)F [Example 644, (S)-5-((1-(3-(4-(5-Chloropyrazin-2-yl)piperazin-1-yl)-3-oxopropoxy)propan-2-yl)amino)-4-(trifluoromethyl)pyridazin-3(2H)-one]
15 | < 0.1 µM | C[C@@H](COCCC(=O)N1CCN(c2cnc(C(F)(F)F)cn2)CC1)Oc1cn[nH]c(=O)c1C(F)(F)F [Example 662, (S)-5-((1-(3-Oxo-3-(4-(5-(trifluoromethyl)pyrazin-2-yl)piperazin-1-yl)propoxy)propan-2-yl)oxy)-4-(trifluoromethyl)pyridazin-3(2H)-one]
16 | < 0.1 µM | O=C(c1cccc(OCC2c3ccccc3CN2c2cn[nH]c(=O)c2C(F)(F)F)c1)N1CCN(c2ncc(C(F)(F)F)cn2)CC1 (centres unmarked) [Example 377, 4-(Trifluoromethyl)-5-(1-((3-(4-(5-(trifluoromethyl)pyrimidin-2-yl)piperazine-1-carbonyl)phenoxy)methyl)isoindolin-2-yl)pyridazin-3(2H)-one]
17 | < 0.1 µM | [2H]C1([2H])N(C(=O)CCOC[C@H](C)Oc2cn[nH]c(=O)c2C(F)(F)F)C([2H])([2H])C([2H])([2H])N(c2ccc(C#N)cn2)C1([2H])[2H] [Example 714, (S)-6-(4-(3-(2-((6-Oxo-5-(trifluoromethyl)-1,6-dihydropyridazin-4-yl)oxy)propoxy)propanoyl)piperazin-1-yl-2,2,3,3,5,5,6,6-d8)nicotinonitrile]
18 | < 0.1 µM | N#Cc1ccc(N2CCN(C(=O)C[C@@H]3CC[C@H](CNc4cn[nH]c(=O)c4C(F)(F)F)O3)CC2)nc1 [Example 581 Isomer D, 6-(4-[2-[(2S,5R)-5-([[6-oxo-5-(trifluoromethyl)-1,6-dihydropyridazin-4-yl]amino]methyl)oxolan-2-yl]acetyl]piperazin-1-yl)pyridine-3-carbonitrile]
19 | < 0.1 µM | C[C@H](CC(=O)N1CCN(c2ccc(C#N)cn2)CC1)OCCNc1cn[nH]c(=O)c1C(F)(F)F [Example 528B]
20 | < 0.1 µM | COC[C@@H](COCCC(=O)N1CCN(c2ccc(C(F)(F)F)cn2)CC1)Nc1cn[nH]c(=O)c1C(F)(F)F [Example 594, 5-[[(2S)-1-Methoxy-3-(3-oxo-3-[4-[5-(trifluoromethyl)pyridin-2-yl]piperazin-1-yl]propoxy)propan-2-yl]amino]-4-(trifluoromethyl)-2,3-dihydropyridazin-3-one]
21 | ≥ 1 µM | O=C(CCOC[C@H](CC1CCNCC1)Nc1cn[nH]c(=O)c1C(F)(F)F)N1CCN(c2ncc(C(F)(F)F)cn2)CC1 [Example 648, (S)-5-((1-(3-Oxo-3-(4-(5-(trifluoromethyl)pyrimidin-2-yl)piperazin-1-yl)propoxy)-3-(piperidin-4-yl)propan-2-yl)amino)-4-(trifluoromethyl)pyridazin-3(2H)-one]
22 | < 0.1 µM | COC[C@@H](COCCC(=O)N1CCN(c2cnc(C(F)(F)F)cn2)CC1)Nc1cn[nH]c(=O)c1C(F)(F)F [Example 681, (S)-5-((1-Methoxy-3-(3-oxo-3-(4-(5-(trifluoromethyl)pyrazin-2-yl)piperazin-1-yl)propoxy)propan-2-yl)amino)-4-(trifluoromethyl)pyridazin-3(2H)-one]
23 | 0.1 to 1 µM | O=c1[nH]ncc(N2Cc3cccc(NC4CCCOC4)c3C2)c1C(F)(F)F (centres unmarked) [Example 307, 5-(4-((Tetrahydro-2H-pyran-3-yl)amino)isoindolin-2-yl)-4-(trifluoromethyl)pyridazin-3(2H)-one]
